The nature of this series: Thermo Scientific Acclaim RSLC 120 C18, 100 × 2.1 mm, 2.2 µm, 30 °C; A: 90% water + 10% methanol + 0.01% formic acid + 5 mM ammonium formate; B: methanol + 0.01% formic acid + 5 mM ammonium formate; gradient (min/%B) 0.1/1 3/39 14/99.9 16/99.9. As to conditions: stereoisomer not certain.
For the compound `CN(C)CCc1c[nH]c2ccc(Cn3cncn3)cc12`, the LC retention time stood at 3.49 min.
`CCN(CC)CCOC(=O)C(c1ccccc1)C1CCCCC1` (stereo not drawn): the LC retention time amounted to 9.19 min.
For the compound `COC(=O)C1C(OC(=O)c2ccccc2)CC2CCC1N2C` (stereo not drawn), the LC retention time stood at 4.84 min.
As for `CCC1OC(=O)C(C)C(OC2CC(C)(OC)C(O)C(C)O2)C(C)C(OC2OC(C)CC(NC)C2O)C(C)(OC)CC(C)C(=O)C(C)C(O)C1(C)O` (stereo not drawn), the figure is 9.16 min.
Take `CCCN1CC(CSC)CC2c3cccc4[nH]cc(c34)CC21` (stereo not drawn): the LC retention time worked out at 6.19 min.
For the compound `CN1C(=O)C(O)CC1c1cccnc1` (stereo not drawn), the LC retention time was 3.13 min.
As for `COc1cc(CCN)cc(OC)c1OC`, the figure is 3.88 min.
In the case of `CC12CCC(=O)C=C1C=CC1C2CCC2(C)C1CCC21CCC(=O)O1` (stereo not drawn), the LC retention time was found to be 9.77 min.
In the case of `CNc1c(C)n(C)n(-c2ccccc2)c1=O`, the LC retention time came out at 4.74 min.
As for `CCCCc1c(C)nc(NCC)[nH]c1=O`, the LC retention time is 8 min.
For `COc1ccc(C(C[N+](C)(C)[O-])C2(O)CCCCC2)cc1` (stereo not drawn) the value was 6.94 min; for `CCCNC(C)C(=O)Nc1c(C)csc1C(=O)OC` (stereo not drawn), 4.69 min; for `CCCC(C(=O)c1ccccc1)N1CCCC1` (stereo not drawn), 5.08 min.
As to `CC(O)Cn1cnc2c1c(=O)n(C)c(=O)n2C` (stereo not drawn), the LC retention time amounted to 4.34 min.
As for `CCOC(=O)C(CCc1ccccc1)NC(C)C(=O)N1Cc2ccccc2CC1C(=O)O` (stereo not drawn), the figure is 9.03 min.
Turning to `CCOC(=O)C(CCc1ccccc1)NC(C)C(=O)N1C(C(=O)O)CC2CCCCC21` (stereo not drawn), the LC retention time was 9.55 min.
As to `CCCCCCCCCCOc1cc2c(=O)c(C(=O)OCC)c[nH]c2cc1OCC`, the LC retention time stood at 13.4 min.
Regarding `COP(=S)(OC)Oc1ccc([N+](=O)[O-])c(C)c1`, the LC retention time came out at 9.92 min.
As for `COc1cc(NC(C)CCCN)c2ncccc2c1` (stereo not drawn), the figure is 6.82 min; as for `Cc1c(N)c(=O)n(-c2ccccc2)n1C`, 4.69 min; as for `CCCCCn1cc(C(=O)c2ccccc2OC)c2ccccc21`, 11.2 min.
Take `CCNC(C)C(=O)c1ccc2c(c1)OCO2` (stereo not drawn): the LC retention time amounted to 4.04 min.
With `COc1nccnc1NS(=O)(=O)c1ccc(N)cc1`, the LC retention time turned out to be 4.44 min.
For `COc1cc(CNC(=O)CCCCC=CC(C)C)ccc1O` the value was 9.83 min; for `CC(=O)Nc1ccc(S(=O)(=O)Nc2ncccn2)cc1`, 4.11 min; for `CCN(Cc1ccncc1)C(=O)C(CO)c1ccccc1` (stereo not drawn), 6.03 min.
On to `CNC(=O)Oc1cc(C)c(N(C)C)c(C)c1`, for which the LC retention time was 9.3 min.
Turning to `CCC(C)C1OC2(CCC1C)CC1CC(CC=C(C)C(OC3CC(OC)C(OC4CC(OC)C(O)C(C)O4)C(C)O3)C(C)C=CC=C3COC4C(O)C(C)=CC(C(=O)O1)C34O)O2` (stereo not drawn), the LC retention time came out at 14.4 min.
`CC1C=CC=CCCC=CC=CC=CC=CC(OC2OC(C)C(O)C(N)C2O)CC2OC(O)(CC(O)C(O)CCC(O)CC(O)CC(O)CC(=O)OC(C)C(C)C1O)CC(O)C2C(=O)O` (stereo not drawn): the LC retention time is 10.3 min.
Regarding `Cn1c(=O)c2c(ncn2CCO)n(C)c1=O`, the LC retention time turned out to be 4.09 min.
Take `COP(=O)(OC)OC(C)=CC(=O)OC(C)c1ccccc1` (stereo not drawn): the LC retention time came to 9.39 min.
Consider `CCCCCCCCOC(=O)c1ccccc1C(=O)OCCCCCCCC`, for which the LC retention time turned out to be 15.3 min.
In the case of `CNC(=C[N+](=O)[O-])NCCSCc1ccc(C[N+](C)(C)[O-])o1`, the LC retention time turned out to be 3.43 min.

For the origin of these results see the RepoRT retention time repository (doi:10.1016/j.jhazmat.2019.121712).
